Measurements: US10316049B2, “Tank-binding kinase inhibitor compounds” (Gilead Sciences, Inc., priority 2015, dated 2019)

Assays:
TBK1 = biological target: T1, TBK1 (Homo sapiens, UniProt Q9UHD2); assay: TR-FRET enzymatic activity assay, TBK1; type: biochemical; also: full length recombinant TBK1 at 2.5 nM
T1 construct: TBK1 and IKKε were expressed and purified as full length recombinant proteins; made in house
T1 sequence (Q9UHD2 1-729): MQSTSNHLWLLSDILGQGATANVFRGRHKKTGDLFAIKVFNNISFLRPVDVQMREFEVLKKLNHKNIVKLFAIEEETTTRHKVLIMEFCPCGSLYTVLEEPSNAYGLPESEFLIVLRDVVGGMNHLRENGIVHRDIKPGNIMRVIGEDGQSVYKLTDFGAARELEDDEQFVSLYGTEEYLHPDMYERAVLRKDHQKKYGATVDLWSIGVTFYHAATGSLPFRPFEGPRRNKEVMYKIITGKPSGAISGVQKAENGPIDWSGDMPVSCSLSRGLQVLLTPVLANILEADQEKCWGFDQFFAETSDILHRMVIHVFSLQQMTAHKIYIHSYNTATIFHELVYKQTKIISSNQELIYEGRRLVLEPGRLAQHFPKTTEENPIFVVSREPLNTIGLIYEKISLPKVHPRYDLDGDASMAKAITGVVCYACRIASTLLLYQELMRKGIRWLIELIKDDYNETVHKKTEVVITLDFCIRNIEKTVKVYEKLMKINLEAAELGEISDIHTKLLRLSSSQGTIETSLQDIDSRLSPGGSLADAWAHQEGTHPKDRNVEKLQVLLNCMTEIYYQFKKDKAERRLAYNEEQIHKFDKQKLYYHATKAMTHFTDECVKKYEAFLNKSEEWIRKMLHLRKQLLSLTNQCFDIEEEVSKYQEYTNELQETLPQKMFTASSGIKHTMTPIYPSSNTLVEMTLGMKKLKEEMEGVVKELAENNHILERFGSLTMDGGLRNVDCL
Summary of the method: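 Full-length recombinant enzymes phosphorylated a biotinylated Ser/Thr peptide for 240 min at 25 °C, stopped with EDTA. Phosphopeptide detected by TR-FRET (streptavidin XL665, Eu-cryptate anti-phospho antibody). IC50 from four-parameter fits normalized to 1 μM staurosporine and DMSO controls, as geometric means of at least four determinations.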

IKKε = biological target: T2, IKKε (Homo sapiens, UniProt Q14164); assay: TR-FRET enzymatic activity assay, IKKε; type: biochemical; settings: read-out: IKKϵ IC50; also: full length recombinant IKKε at 0.3 nM
T2 construct: TBK1 and IKKε were expressed and purified as full length recombinant proteins; made in house
T2 sequence (Q14164 1-716): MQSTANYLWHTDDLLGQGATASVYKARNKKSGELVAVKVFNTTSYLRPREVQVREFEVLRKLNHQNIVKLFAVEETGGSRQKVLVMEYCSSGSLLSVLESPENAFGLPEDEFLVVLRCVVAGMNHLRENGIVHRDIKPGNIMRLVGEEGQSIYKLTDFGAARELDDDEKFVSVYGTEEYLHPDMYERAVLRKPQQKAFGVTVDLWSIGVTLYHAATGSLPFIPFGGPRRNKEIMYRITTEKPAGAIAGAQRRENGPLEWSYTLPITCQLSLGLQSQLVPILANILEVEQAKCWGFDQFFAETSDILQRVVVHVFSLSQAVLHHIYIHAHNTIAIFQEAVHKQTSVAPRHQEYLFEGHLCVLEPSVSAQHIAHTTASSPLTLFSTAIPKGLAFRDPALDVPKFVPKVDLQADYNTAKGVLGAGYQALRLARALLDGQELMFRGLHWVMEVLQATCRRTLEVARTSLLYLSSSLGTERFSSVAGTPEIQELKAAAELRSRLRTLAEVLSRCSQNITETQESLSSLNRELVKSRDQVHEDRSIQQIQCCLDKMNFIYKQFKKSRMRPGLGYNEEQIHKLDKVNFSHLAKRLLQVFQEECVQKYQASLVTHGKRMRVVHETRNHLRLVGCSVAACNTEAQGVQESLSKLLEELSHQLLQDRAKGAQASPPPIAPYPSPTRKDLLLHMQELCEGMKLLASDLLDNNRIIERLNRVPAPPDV
Summary of the method: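 Full-length recombinant IKKε phosphorylated a biotinylated Ser/Thr peptide for 240 min at 25 °C; EDTA stop. Phospho-peptide detected by TR-FRET with streptavidin-XL665 (125 nM) and Eu-cryptate anti-phospho antibody. Normalised to staurosporine and DMSO controls; IC50 from four-parameter fit, geometric mean of ≥4 runs.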

IC50 (TBK1)	IC50 (IKKε)	SMILES
16.4 nM	32.2 nM	N#Cc1cc(-c2ccnc(NC(=O)[C@@H]3C[C@@H]3F)c2)ccc1O[C@H]1CCN(C(=O)CO)C[C@H]1F [Example 61, (1S,2S)—N-(4-(3-cyano-4-(((3R,4S)-3-fluoro-1-(2-hydroxyacetyl)piperidin-4-yl)oxy)phenyl)pyridin-2-yl)-2-fluorocyclopropanecarboxamide]
75.6 nM	200 nM	N#Cc1cc(-c2ccnc(NC(=O)[C@@H]3C[C@H]3c3ccncc3)c2)ccc1OC1CCOCC1 (relative stereo) [Example 151, Trans-N-(4-(3-cyano-4-((tetrahydro-2H-pyran-4-yl)oxy)phenyl)pyridin-2-yl)-2-(pyridin-4-yl)cyclopropane-1-carboxamide]
20.3 nM	128 nM	C[C@H]1CCCN1c1ccc(-c2ccnc(NC(=O)C3CC3)c2)cc1C#N [Example 92, (S)—N-(4-(3-cyano-4-(2-methylpyrrolidin-1-yl)phenyl)pyridin-2-yl)cyclopropanecarboxamide]
62.1 nM	48.2 nM	N#Cc1cc(-c2ccnc(NC(=O)[C@@H]3C[C@H]3CO)c2)ccc1OC1CCOCC1 (relative stereo) [Example 42, (1,2-trans)-N-(4-(3-cyano-4-((tetrahydro-2H-pyran-4-yl)oxy)phenyl)pyridin-2-yl)-2-(hydroxymethyl)cyclopropane-1-carboxamide]
15.6 nM	53.1 nM	N#Cc1cc(-c2cc(NC(=O)C3CC3)ncn2)ccc1O[C@H]1CCN(C(=O)CO)C[C@H]1F [Example 19, N-(6-(3-cyano-4-(((3R,4S)-3-fluoro-1-(2-hydroxyacetyl)piperidin-4-yl)oxy)phenyl)pyrimidin-4-yl)cyclopropanecarboxamide]
628 nM	316 nM	N#Cc1cc(-c2ccnc(NC(=O)[C@H]3[C@@H]4CNC[C@@H]43)c2)ccc1OC1CCOCC1 [Example 124, (1R,5S,6R-rel)-N-(4-(3-cyano-4-((tetrahydro-2H-pyran-4-yl)oxy)phenyl)pyridin-2-yl)-3-azabicyclo[3.1.0]hexane-6-carboxamide]
36.6 nM	41 nM	Cc1nnc([C@@H]2C[C@H]2C(=O)Nc2cc(-c3ccc(O[C@H]4CCN(C(=O)CO)C[C@H]4F)c(C#N)c3)ccn2)o1 [Example 156, Trans-N-(4-(3-cyano-4-(((3R,4S)-3-fluoro-1-(2-hydroxyacetyl)piperidin-4-yl)oxy)phenyl)pyridin-2-yl)-2-(5-methyl-1,3,4-oxadiazol-2-yl)cyclopropane-1-carboxamide]
19.9 nM	44.3 nM	Cn1cc([C@@H]2C[C@H]2C(=O)Nc2cc(-c3ccc(O[C@H]4CCN(C(=O)CO)C[C@H]4F)c(C#N)c3)ncn2)cn1 [Example 143, (1,2-Trans)-N-(6-(3-cyano-4-(((3R,4S)-3-fluoro-1-(2-hydroxyacetyl)piperidin-4-yl)oxy)phenyl)pyrimidin-4-yl)-2-(1-methyl-1H-pyrazol-4-yl)cyclopropane-1-carboxamide]
5.6 nM	7.1 nM	N#Cc1cc(-c2cc(NC(=O)C3CC3)ncn2)ccc1O[C@H]1CCN(C(=O)c2nnc[nH]2)CC1(F)F [Example 32, (S)—N-(6-(3-cyano-4-((3,3-difluoro-1-(4H-1,2,4-triazole-3-carbonyl)piperidin-4-yl)oxy)phenyl)pyrimidin-4-yl)cyclopropanecarboxamide]
6 nM	4.9 nM	Cn1cc([C@H]2C[C@@H]2C(=O)Nc2cc(-c3ccc(O[C@H]4CCN(C(=O)CO)CC4(F)F)c(C#N)c3)ccn2)cn1 [Example 122, (1S, 2S)—N-(4-(3-cyano-4-(((S)-3,3-difluoro-1-(2-hydroxyacetyl)piperidin-4-yl)oxy)phenyl)pyridin-2-yl)-2-(1-methyl-1H-pyrazol-4-yl)cyclopropane-1-carboxamide]
33.3 nM	192 nM	N#Cc1cc(-c2ccnc(NC(=O)[C@@H]3C[C@H]3C3OCCO3)c2)ccc1OC1CCOCC1 (relative stereo) [Example 44, (1,2-trans)-N-(4-(3-cyano-4-((tetrahydro-2H-pyran-4-yl)oxy)phenyl)pyridin-2-yl)-2-(1,3-dioxolan-2-yl)cyclopropane-1-carboxamide]
762 nM	> 1000 nM	N#Cc1cc(-c2cc(NC(=O)C3CC3)ncn2)ccc1C(=O)NCC(F)F [Example 53, 2-cyano-4-(6-(cyclopropanecarboxamido)pyrimidin-4-yl)-N-(2,2-difluoroethyl)benzamide]
> 1000 nM	> 1000 nM	N#Cc1cc(-c2ccnc(NC(=O)C3CC3)c2)ccc1CC1CCOCC1 [Example 98, N-(4-(3-cyano-4-((tetrahydro-2H-pyran-4-yl)methyl)phenyl)pyridin-2-yl)cyclopropanecarboxamide]
12.4 nM	44 nM	N#CCC(=O)N1CC[C@H](Oc2ccc(-c3ccnc(NC(=O)C4CC4)c3)cc2C#N)C(F)(F)C1 [Example 13, (S)—N-(4-(3-cyano-4-((1-(2-cyanoacetyl)-3,3-difluoropiperidin-4-yl)oxy)phenyl)pyridin-2-yl)cyclopropanecarboxamide]
335 nM	284 nM	N#Cc1cc(-c2ccnc(NC(=O)C3CCC3)c2)ccc1OC1CCOCC1 [Example 3, N-(4-(3-cyano-4-((tetrahydro-2H-pyran-4-yl)oxy)phenyl)pyridin-2-yl)cyclobutanecarboxamide]
5.6 nM	9.5 nM	Cn1cc([C@@H]2C[C@H]2C(=O)Nc2cc(-c3ccc(O[C@H]4CCN(C(=O)CO)C[C@H]4F)c(C#N)c3)ccn2)cn1 [Example 90, (1,2-trans)-N-(4-(3-cyano-4-(((3R,4S)-3-fluoro-1-(2-hydroxyacetyl)piperidin-4-yl)oxy)phenyl)pyridin-2-yl)-2-(1-methyl-1H-pyrazol-4-yl)cyclopropane-1-carboxamide]
826 nM	> 1000 nM	N#Cc1cc(-c2cc(NC(=O)C3CC3)ncn2)ccc1O [Example 109, N-(6-(3-cyano-4-hydroxyphenyl)pyrimidin-4-yl)cyclopropanecarboxamide]
93.3 nM	297 nM	N#Cc1cc(-c2cc(NC(=O)C3CC3)ncn2)ccc1O[C@H]1CCNCC1(F)F [Example 25, (S)—N-(6-(3-cyano-4-((3,3-difluoropiperidin-4-yl)oxy)phenyl)pyrimidin-4-yl)cyclopropanecarboxamide]
16.1 nM	30.8 nM	Cn1cc([C@@H]2C[C@H]2C(=O)Nc2cc(-c3ccc(O[C@H]4CCN(C(=O)[C@@H](O)CO)C[C@H]4F)c(C#N)c3)ncn2)cn1 [Example 146, (1,2-Trans)-N-(6-(3-cyano-4-(((3R,4S)-1-((S)-2,3-dihydroxypropanoyl)-3-fluoropiperidin-4-yl)oxy)phenyl)pyrimidin-4-yl)-2-(1-methyl-1H-pyrazol-4-yl)cyclopropane-1-carboxamide]
107 nM	209 nM	C[C@H]1C[C@@H](Oc2ccc(-c3cc(NC(=O)C4CC4)ncn3)cc2C#N)CCN1C(=O)CO [Example 112, N-(6-(3-cyano-4-(((2S,4S)-1-(2-hydroxyacetyl)-2-methylpiperidin-4-yl)oxy)phenyl)pyrimidin-4-yl)cyclopropanecarboxamide]
